# Data from ChEMBL document CHEMBL1135129, “N-Tetrahydrofuroyl-(L)-phenylalanine derivatives as potent VLA-4 antagonists” (Bioorg Med Chem Lett, 2002).
# Assays:
# [1] = Oral bioavailability in rat (Sprague-Dawley) (dose 1 mg/kg i.v.); type: ADME, organism-based; conditions: in vivo
# [2] = Oral bioavailability in rat (Sprague-Dawley) (dose 2 mg/kg); type: ADME, organism-based; conditions: in vivo
# Integrin alpha-4/beta-1 [3] = molecular target: T1, Integrin alpha-4/beta-1 (Homo sapiens, UniProt P05556+P13612); test: Inhibition of I-VCAM-Ig binding to Very late antigen 4 (VLA-4); type: protein-complex assay
# T1 sequence (P05556 whole entry): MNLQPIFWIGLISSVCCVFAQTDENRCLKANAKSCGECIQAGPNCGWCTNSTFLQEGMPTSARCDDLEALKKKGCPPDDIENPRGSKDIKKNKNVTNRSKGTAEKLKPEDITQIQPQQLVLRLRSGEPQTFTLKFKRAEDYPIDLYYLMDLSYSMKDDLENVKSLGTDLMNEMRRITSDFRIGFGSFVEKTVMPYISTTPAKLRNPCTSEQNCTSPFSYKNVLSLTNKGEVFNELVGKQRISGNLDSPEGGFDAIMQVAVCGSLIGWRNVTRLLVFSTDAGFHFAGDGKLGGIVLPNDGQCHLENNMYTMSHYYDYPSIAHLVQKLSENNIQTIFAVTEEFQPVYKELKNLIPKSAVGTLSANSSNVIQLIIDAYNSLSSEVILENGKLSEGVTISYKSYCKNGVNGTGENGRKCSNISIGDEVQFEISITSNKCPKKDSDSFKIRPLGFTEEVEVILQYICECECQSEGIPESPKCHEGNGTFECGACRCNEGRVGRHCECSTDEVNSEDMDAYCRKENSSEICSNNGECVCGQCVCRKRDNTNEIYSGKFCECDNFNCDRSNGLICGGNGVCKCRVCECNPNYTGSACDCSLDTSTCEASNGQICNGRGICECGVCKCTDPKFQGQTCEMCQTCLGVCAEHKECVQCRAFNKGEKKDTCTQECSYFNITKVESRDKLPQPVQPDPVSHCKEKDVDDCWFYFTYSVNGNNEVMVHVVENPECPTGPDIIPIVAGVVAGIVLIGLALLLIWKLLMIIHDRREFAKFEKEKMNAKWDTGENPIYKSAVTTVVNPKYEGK
# T1 sequence (P13612 whole entry): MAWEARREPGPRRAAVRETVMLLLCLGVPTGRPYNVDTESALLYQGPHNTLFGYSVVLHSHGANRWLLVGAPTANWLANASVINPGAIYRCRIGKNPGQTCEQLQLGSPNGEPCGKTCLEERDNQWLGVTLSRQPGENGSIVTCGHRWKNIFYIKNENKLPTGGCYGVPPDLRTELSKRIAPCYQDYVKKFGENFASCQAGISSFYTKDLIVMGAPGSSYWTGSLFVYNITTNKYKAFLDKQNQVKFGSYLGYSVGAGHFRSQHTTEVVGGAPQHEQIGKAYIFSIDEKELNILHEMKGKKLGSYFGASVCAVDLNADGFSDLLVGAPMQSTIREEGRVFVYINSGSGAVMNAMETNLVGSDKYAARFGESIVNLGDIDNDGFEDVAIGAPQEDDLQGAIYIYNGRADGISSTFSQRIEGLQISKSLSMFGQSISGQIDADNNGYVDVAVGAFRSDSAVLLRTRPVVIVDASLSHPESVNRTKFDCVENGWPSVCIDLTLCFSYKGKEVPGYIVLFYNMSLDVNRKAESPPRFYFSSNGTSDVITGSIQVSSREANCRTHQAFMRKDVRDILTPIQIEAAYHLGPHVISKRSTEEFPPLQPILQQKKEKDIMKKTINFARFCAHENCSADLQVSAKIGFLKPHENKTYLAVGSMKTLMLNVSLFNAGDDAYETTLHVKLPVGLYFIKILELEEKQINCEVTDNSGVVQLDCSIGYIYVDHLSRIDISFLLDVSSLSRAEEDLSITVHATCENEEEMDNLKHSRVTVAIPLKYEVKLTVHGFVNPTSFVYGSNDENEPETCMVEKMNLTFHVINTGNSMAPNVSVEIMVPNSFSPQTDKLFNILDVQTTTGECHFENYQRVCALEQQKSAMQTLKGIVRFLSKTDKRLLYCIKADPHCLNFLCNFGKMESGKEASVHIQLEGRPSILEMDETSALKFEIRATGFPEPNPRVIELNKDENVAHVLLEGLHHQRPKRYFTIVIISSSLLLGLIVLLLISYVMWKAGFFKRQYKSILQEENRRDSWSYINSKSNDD
# Integrin alpha-4/beta-1 [4] = molecular target: T1, Integrin alpha-4/beta-1; test: Inhibition of very late antigen-4 alpha4-beta1 (VLA-4), I-VCAM-Ig as radioligand; type: protein-complex assay
# [5] = Oral bioavailability in rat (Sprague-Dawley); type: ADME, organism-based; conditions: in vivo
Structure (SMILES),IC50 (Integrin alpha-4/beta-1 [4]) [nM],further results
COc1ccccc1-c1ccc(C[C@@H](NC(=O)[C@@]2(C)CCCO2)C(=O)O)cc1,–,bioavailability [1]: 57%; bioavailability [2]: 57%; IC50 (Integrin alpha-4/beta-1 [3]): 2.7 nM
COc1ccccc1-c1ccc(C[C@H](NC(=O)[C@@]2(C)CCCO2)C(=O)O)cc1,–,IC50 (Integrin alpha-4/beta-1 [3]): 13.7 nM
C[C@]1(C(=O)N[C@@H](Cc2ccc(-c3c(OC4CC4)cccc3OC3CC3)cc2)C(=O)O)CCCO1,2.4,–
C[C@]1(C(=O)N[C@@H](Cc2ccc(-c3ccccc3OC3CC3)cc2)C(=O)O)CCCO1,3.9,bioavailability [1]: 76%; bioavailability [2]: 76%
COc1ccccc1-c1ccc(C[C@H](NC(=O)C2CCCC2)C(=O)O)cc1,63,–
COc1ccccc1-c1ccc(C[C@H](NC(=O)[C@@H]2CCCN2)C(=O)O)cc1,11,–
C[C@]1(C(=O)N[C@@H](Cc2ccc(-n3ccccc3=O)cc2)C(=O)O)CCCO1,12.9,bioavailability [1]: 27%; bioavailability [2]: 27%
C[C@]1(C(=O)N[C@@H](Cc2ccc(NC(=O)c3c(Cl)cncc3Cl)cc2)C(=O)O)CCCO1,0.2,–
COc1ccccc1-c1ccc(C[C@H](NC(=O)N2CCCN2S(=O)(=O)c2cc(Cl)cc(Cl)c2)C(=O)O)cc1,0.88,–
C[C@]1(C(=O)N[C@@H](Cc2ccc(-n3ccn(Cc4ccccc4)c3=O)cc2)C(=O)O)CCCO1,4.1,–
COc1cccc(OC)c1-c1ccc(C[C@H](NC(=O)[C@@]2(C)CCCO2)C(=O)O)cc1,–,bioavailability [1]: 42%; bioavailability [2]: 42%; IC50 (Integrin alpha-4/beta-1 [3]): 0.3 nM
COc1ccccc1-c1ccc(C[C@H](NC(=O)N2CCC=N2)C(=O)O)cc1,19.3,–
COc1ccccc1-c1ccc(C[C@H](NC(=O)C2(C)CCCO2)C(=O)O)cc1 (stereo partly specified),–,IC50 (Integrin alpha-4/beta-1 [3]): 3.9 nM; bioavailability [5]: 72%
C[C@]1(C(=O)N[C@@H](Cc2ccc(-c3ccccc3C#N)cc2)C(=O)O)CCCO1,11,–
COc1ccccc1-c1ccc(C[C@H](NC(=O)C2CCCO2)C(=O)O)cc1 (stereo partly specified),1.7,–
COc1ccccc1-c1ccc(C[C@H](NC(=O)C2(C)CCCS2(=O)=O)C(=O)O)cc1 (stereo partly specified),1.3,bioavailability [5]: 6%
COc1ccccc1-c1ccc(C[C@H](NC(=O)C2CCCS2(=O)=O)C(=O)O)cc1 (stereo partly specified),2.1,–
COc1ccccc1-c1ccc(C[C@H](NC(=O)C2CCCCO2)C(=O)O)cc1 (stereo partly specified),4.9,–
COc1ccccc1-c1ccc(C[C@H](NC(=O)N2CCCC2)C(=O)O)cc1,17,–
COc1ccccc1-c1ccc(C[C@H](NC(=O)C2CCOC2)C(=O)O)cc1 (stereo partly specified),36,–
COc1ccccc1-c1ccc(C[C@H](NC(=O)C2CCC(=O)N2)C(=O)O)cc1 (stereo partly specified),2.8,–
